Test results reported in patent publication US20100216802A1, “PTERIDINE DERIVATIVES AS POLO-LIKE KINASE INHIBITORS USEFUL IN THE TREATMENT OF CANCER” (CHROMA THERAPEUTICS LTD., priority 2006, published 2010).

Columns and labels:
PLK1 = target: T1, PLK1 (Homo sapiens, UniProt P53350); experiment: PLK1 enzyme assay (Z'-LYTE, Invitrogen); assay type: biochemical; conditions: ATP at or close to Km; read-out: Inhibitor Activity vs PLK1
T1 construct: purchased Invitrogen (Paisley, UK)
Protocol: The ability of compounds to inhibit PLK-1 kinase activity was measured in an assay performed by Invitrogen (Paisley, UK). The Z′-LYTE™ biochemical assay employs a fluorescence-based, coupled-enzyme format and is based on the differential sensitivity of phosphorylated and non-phosphorylated peptides to proteolytic cleavage. The peptide substrate is labelled with two fluorophores—one at each end—that make up a FRET pair. In the primary reaction, the kinase transfers the gamma-phosphate of ATP to a single serine or threonine residue in a synthetic FRET-peptide. In the secondary reaction, a site-specific protease recognizes and cleaves non-phosphorylated FRET-peptides. Phosphorylation of FRET-peptides suppresses cleavage by the Development Reagent. Cleavage disrupts FRET between the donor (i.e., coumarin) and acceptor (i.e., fluorescein) fluorophores on the FRET-peptide, whereas uncleaved, phosphorylated FRET-peptides maintain FRET. A […] method, which calculates the ratio (the Emission Ratio) of donor emission to acceptor emission after excitation of the donor fluorophore at 400 nm, is used to quantitate reaction progress.
The assay is performed at an ATP concentration at, or close to, the Km. After the 60 minute Kinase Reaction incubation at RT, 5 μL of a 1:8 dilution of Development Reagent is added. The assay plate is incubated for a further 60 minutes at RT and read on a fluorescence plate reader.
Duplicate data points are generated from a ⅓ log dilution series of a stock solution of test compound in DMSO. Nine dilutions steps are made from a top concentration of 10 μM, and a ‘no compound’ blank is included. Data is collected and analysed using XLfit software from IDBS.

HCT 116 cell line = experiment: Cell inhibition assay method A (WST-1, 120 hrs); assay type: cell-based; conditions: Homo sapiens, HCT-116, method A, read-out: Inhibitor Activity vs HCT 116 cell line (method A)
Protocol: Cell inhibition assays were carried out using either method A or method B
Cells were seeded in 96W tissue culture plates (1 well=30 mm^2) at a density of […] per well in 50 μL of the appropriate culture medium (see below). 24 hrs later […] of the compound prepared in the same medium was added as 4 fold dilutions to give final concentrations in the range 0.15 nM-2500 nM (n=6 for each concentration). The plates were then incubated at 37° C., 5% CO2 for 120 hrs. Cell proliferation was assessed using WST-1 (a metabolic indicator dye, Roche Cat no. 1 644 807) according to the manufacturers instructions. The results were calculated as percentage of vehicle response and IC50 values represent the concentration of compound that inhibited the vehicle response by 50%.
HCT-116 culture medium —Dulbeccos MEM (Sigma D6546) plus 10% heat inactivated fetal calf serum (Hyclone SH30071 Thermo Fischer Scientific) containing 2 mM Glutamine (Sigma cat no G-7513) and 50 U/ml Penicillin and Streptomycin Sulphate (Sigma Cat no P-0781).

T1 sequence (P53350 whole entry): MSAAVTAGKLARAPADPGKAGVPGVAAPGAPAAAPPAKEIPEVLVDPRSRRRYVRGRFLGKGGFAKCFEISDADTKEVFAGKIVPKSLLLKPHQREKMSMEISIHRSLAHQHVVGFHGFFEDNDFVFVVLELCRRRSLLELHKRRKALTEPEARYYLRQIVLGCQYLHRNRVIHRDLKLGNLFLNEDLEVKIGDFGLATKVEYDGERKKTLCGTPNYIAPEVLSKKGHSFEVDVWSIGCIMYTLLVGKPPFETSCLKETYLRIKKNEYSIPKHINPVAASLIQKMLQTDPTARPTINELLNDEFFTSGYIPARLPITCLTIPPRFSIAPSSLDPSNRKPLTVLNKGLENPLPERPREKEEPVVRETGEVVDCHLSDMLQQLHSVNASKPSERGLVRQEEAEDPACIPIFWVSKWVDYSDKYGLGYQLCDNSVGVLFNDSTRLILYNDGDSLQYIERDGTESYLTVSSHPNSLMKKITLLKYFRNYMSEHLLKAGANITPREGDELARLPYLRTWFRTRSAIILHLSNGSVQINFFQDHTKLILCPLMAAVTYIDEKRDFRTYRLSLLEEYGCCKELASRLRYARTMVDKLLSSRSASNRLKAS

CC[C@@H]1C(=O)N(C)c2cnc(Nc3ccc(OCC[C@H](N)C(=O)OC4CCCC4)cc3)nc2N1C1CCCC1 [Example 3, Cyclopentyl O-(4-{[(7R)-8-cyclopentyl-7-ethyl-5-methyl-6-oxo-5,6,7,8-tetrahydropteridin-2-yl]amino}phenyl)-L-homoserinate]
IC50 (PLK1): < 100 nM
IC50 (HCT 116 cell line): 100 to 500 nM

CC[C@@H]1C(=O)N(C)c2cnc(Nc3ccc(OCC[C@H](N)C(=O)OC4CCCC4)cc3OC)nc2N1C1CCCC1 [Example 4, Cyclopentyl O-(4-{[(7R)-8-cyclopentyl-7-ethyl-5-methyl-6-oxo-5,6,7,8-tetrahydropteridin-2-yl]amino}-3-methoxyphenyl)-L-homoserinate]
IC50 (PLK1): < 100 nM
IC50 (HCT 116 cell line): < 100 nM

CC[C@@H]1C(=O)N(C)c2cnc(Nc3ccc(C(=O)NCC[C@H](N)C(=O)OC4CCCC4)cc3OC)nc2N1C1CCCC1 [Example 5, Cyclopentyl (2S)-2-amino-4-[(4-{[(7R)-8-cyclopentyl-7-ethyl-5-methyl-6-oxo-5,6,7,8-tetrahydropteridin-2-yl]amino}-3-methoxybenzoyl)amino]butanoate]
IC50 (PLK1): < 100 nM
IC50 (HCT 116 cell line): < 100 nM

CC[C@@H]1C(=O)N(C)c2cnc(Nc3ccc(C(=O)N[C@@H]4CN[C@H](C(=O)OC5CCCC5)C4)cc3OC)nc2N1C1CCCC1 [Example 6, Cyclopentyl (4S)-4-[(4-{[(7R)-8-cyclopentyl-7-ethyl-5-methyl-6-oxo-5,6,7,8-tetrahydropteridin-2-yl]amino}-3-methoxybenzoyl)amino]-L-prolinate]
IC50 (PLK1): < 100 nM
IC50 (HCT 116 cell line): < 100 nM

CC[C@@H]1C(=O)N(C)c2cnc(Nc3ccc(C(=O)Nc4ccc(C[C@H](N)C(=O)OC5CCCC5)cc4)cc3OC)nc2N1C1CCCC1 [Example 7, Cyclopentyl 4-[(4-{[(7R)-8-cyclopentyl-7-ethyl-5-methyl-6-oxo-5,6,7,8-tetrahydropteridin-2-yl]amino}-3-methoxybenzoyl)amino]-L-phenylalaninate]
IC50 (PLK1): 100 to 500 nM
IC50 (HCT 116 cell line): < 100 nM

CC[C@@H]1C(=O)N(C)c2cnc(Nc3ccc(C(=O)NCCCC[C@H](N)C(=O)OC4CCCC4)cc3OC)nc2N1C1CCCC1 [Example 8, Cyclopentyl N^6-(4-{[(7R)-8-cyclopentyl-7-ethyl-5-methyl-6-oxo-5,6,7,8-tetrahydropteridin-2-yl]amino}-3-methoxybenzoyl)lysinate]
IC50 (PLK1): < 100 nM
IC50 (HCT 116 cell line): < 100 nM

CC[C@@H]1C(=O)N(C)c2cnc(Nc3ccc(C(=O)NCc4ccc(OCC[C@H](N)C(=O)OC5CCCC5)cc4)cc3OC)nc2N1C1CCCC1 [Example 9, Cyclopentyl O-(4-{[(4-{[(7R)-8-cyclopentyl-7-ethyl-5-methyl-6-oxo-5,6,7,8-tetrahydropteridin-2-yl]amino}-3-methoxybenzoyl)amino]methyl}phenyl)-L-homoserinate]
IC50 (PLK1): 100 to 500 nM
IC50 (HCT 116 cell line): < 100 nM

CC[C@@H]1C(=O)N(C)c2cnc(Nc3ccc(C(=O)NCCN4CCC(C[C@H](N)C(=O)OC5CCCC5)CC4)cc3OC)nc2N1C1CCCC1 [Example 10, Cyclopentyl 3-(1-{2-[(4-{[(7R)-8-cyclopentyl-7-ethyl-5-methyl-6-oxo-5,6,7,8-tetrahydropteridin-2-yl]amino}-3-methoxybenzoyl)amino]ethyl}piperidin-4-yl)alaninate]
IC50 (PLK1): < 100 nM
IC50 (HCT 116 cell line): < 100 nM

CC[C@@H]1C(=O)N(C)c2cnc(Nc3ccc(C(=O)Nc4ccc(C[C@H](N)C(=O)OC(C)(C)C)cc4)cc3OC)nc2N1C1CCCC1 [Example 11, tert-Butyl 4-[(4-{[(7R)-8-cyclopentyl-7-ethyl-5-methyl-6-oxo-5,6,7,8-tetrahydropteridin-2-yl]amino}-3-methoxybenzoyl)amino]-L-phenylalaninate]
IC50 (PLK1): < 100 nM
IC50 (HCT 116 cell line): 100 to 500 nM

CC[C@@H]1C(=O)N(C)c2cnc(Nc3ccc(C(=O)NCc4ccc(OCC[C@H](N)C(=O)OC(C)(C)C)cc4)cc3OC)nc2N1C1CCCC1 [Example 12]
IC50 (PLK1): < 100 nM
IC50 (HCT 116 cell line): < 100 nM
